# According to patent publication US20080063628A1, “METHODS TO PROMOTE CELL DIFFERENTIATION” (priority 2006, published 2008):
# System: second amniotic fluid-derived cell line
# Assay: Two sequential high dose trichostatin A treatments (24 h each), gene expression by RT-PCR (Example 8)
# Format: cell-based, human
# Settings: for Gata1 gene expression / HNF-3 beta gene expression / Insulin gene expression / Pdx-1 gene expression / sox17 gene expression: 1.25 μM 0-24 h + 96-120 h
# Protocol: Several cell lines obtained from different amniotic fluid specimens (see Example 14) and pancreas donors (see Example 13) were tested with similar results. Two lines at similar passage number but derived from different amniotic fluid specimens are shown in Table VIII-A and Table VIII-B for this example. One of these cell lines was also used in examples 2 and 4 above. In addition, this example also contains comparison data in Table VIII-C and Table VIII-D for a single pancreatic-derived stromal line grown to early and late passage number.
# Amniotic fluid derived cells or pancreatic-derived stromal cells were seeded into 24-well tissue culture plates at a density of 5000/cm^2 and cultured in AMNIOMAX (Invitrogen) or DMEM with 10% FBS respectively under standard cell culture conditions until confluent. After the cells reached confluency, amniotic fluid derived cells were treated at time 0 hours with a dose of 1.25 μM trichostatin A, and pancreatic-derived stromal cells were treated with a dose of 5.0 μM trichostatin A solubilized in DMSO and medium. At time 24 hours, cell cultures underwent a complete medium change to remove all traces of trichostatin A. At time 96 hours, cell cultures were re-fed with fresh medium and received a second dose of trichostatin A at the same concentration as used previously. At time 120 hours, cell cultures again underwent a complete medium change and were cultured for an additional 24 hours or […] total incubation time.
# Samples were taken daily for RT-PCR at the times indicated in Table VIII-A to D. The culture media was removed, and samples were rinsed in PBS then collected in RLT with β-mercaptoethanol (Qiagen). RNA was purified using the RNeasy Mini Kit (Qiagen) and RNA quantity and quality were determined using a spectrophotometer. cDNA was made using the iScript cDNA synthesis kit (BioRad).
# Samples of 20 ng cDNA were used in each reaction to determine the expression levels of the following genes in amniotic fluid-derived cells: Gata1, HNF-3 beta, Pdx-1, insulin, and Sox17. Similarly, samples of 20 ng cDNA were used in each reaction to determine the expression level of the following genes in pancreatic-derived cells: glucagon, HNF-3 beta, insulin and Pdx-1. Real-Time PCR was performed on the Applied Biosystems 7500, and data was analyzed using the accompanying software according to the methods described in Example 15.
# Real-time PCR amplifcation and quantitative analysis. Unless otherwise stated, all reagents were purchased from Applied Biosystems. Real-time PCR reactions were performed using the ABI PRISM™ 7500 Sequence Detection System. TAQMAN™ FAST UNIVERSAL PCR MASTER MIX™ (ABI, CA) was used with 20 ng of reverse transcribed RNA in a total reaction volume of 20 μl. Each cDNA sample was run in duplicate to allow correction of pipetting errors. Primers and FAM-labeled TAQMAN™ probes were used at concentrations of 200 nM. The level of expression for each target gene was normalized using the pre-developed Applied Biosystem's human glyceraldehyde-3-phosphate dehydrogenase (GAPDH) endogenous control kit. Primers and probes were designed using either ABI PRISM PRIMER EXPRESS™ software or a pre-developed ABI gene analysis kit. For each gene, either one of the primers or the probe were designed to be exon-boundary spanning. This eliminated the possibility of the primers/probe binding to any genomic DNA present. The primer and probe sets are listed as follows: Pdx-1 (Hs00426216), Insulin (Hs00355773), glucagon (Hs00174967), and FoxA2 (HNF 3-beta) (Hs00232764). The remaining primers were designed using the PRIMERS program (ABI, CA). After an initial 95° C. incubation for 20 sec, samples were cycled 40 times in two stages: a denaturation step at 95° C. for 3 sec, followed by an annealing/extension step at 60° C. for 30 sec. […]
# [1] = 1.25 μM, following the second treatment
smiles,measurement,setting,value
CC(/C=C/C(=O)NO)=C\[C@@H](C)C(=O)c1ccc(N(C)C)cc1 [trichostatin A],Gata1 gene expression,24 hrs,+ (detectable between 35 and 40 cycles by RT-PCR)
same,HNF-3 beta gene expression,24 hrs,+++ (detectable at less than 35 cycles by RT-PCR with SE less than 0.9)
same,Insulin gene expression,24 hrs,nd (not detectable at >40 cycles by RT-PCR)
same,Pdx-1 gene expression,24 hrs,+++ (detectable at less than 35 cycles by RT-PCR with SE less than 0.9)
same,sox17 gene expression,24 hrs,+++ (detectable at less than 35 cycles by RT-PCR with SE less than 0.9)
same,Gata1 gene expression,48 hrs,nd (not detectable at >40 cycles by RT-PCR)
same,HNF-3 beta gene expression,48 hrs,+++ (detectable at less than 35 cycles by RT-PCR with SE less than 0.9)
same,Insulin gene expression,48 hrs,nd (not detectable at >40 cycles by RT-PCR)
same,Pdx-1 gene expression,48 hrs,nd (not detectable at >40 cycles by RT-PCR)
same,sox17 gene expression,48 hrs,+++ (detectable at less than 35 cycles by RT-PCR with SE less than 0.9)
same,Gata1 gene expression,72 hrs,nd (not detectable at >40 cycles by RT-PCR)
same,HNF-3 beta gene expression,72 hrs,+++ (detectable at less than 35 cycles by RT-PCR with SE less than 0.9)
same,Insulin gene expression,72 hrs,+ (detectable between 35 and 40 cycles by RT-PCR)
same,Pdx-1 gene expression,72 hrs,nd (not detectable at >40 cycles by RT-PCR)
same,sox17 gene expression,72 hrs,+++ (detectable at less than 35 cycles by RT-PCR with SE less than 0.9)
same,Gata1 gene expression,96 hrs,nd (not detectable at >40 cycles by RT-PCR)
same,HNF-3 beta gene expression,96 hrs,+ (detectable between 35 and 40 cycles by RT-PCR)
same,Insulin gene expression,96 hrs,+ (detectable between 35 and 40 cycles by RT-PCR)
same,Pdx-1 gene expression,96 hrs,nd (not detectable at >40 cycles by RT-PCR)
same,sox17 gene expression,96 hrs,+++ (detectable at less than 35 cycles by RT-PCR with SE less than 0.9)
same,Gata1 gene expression,120 hrs,+ (detectable between 35 and 40 cycles by RT-PCR)
same,HNF-3 beta gene expression,120 hrs,+++ (detectable at less than 35 cycles by RT-PCR with SE less than 0.9)
same,Insulin gene expression,120 hrs,nd (not detectable at >40 cycles by RT-PCR)
same,Pdx-1 gene expression,120 hrs,+++ (detectable at less than 35 cycles by RT-PCR with SE less than 0.9)
same,sox17 gene expression,120 hrs,+++ (detectable at less than 35 cycles by RT-PCR with SE less than 0.9)
same,Gata1 gene expression,144 hrs,nd (not detectable at >40 cycles by RT-PCR)
same,HNF-3 beta gene expression,144 hrs,+++ (detectable at less than 35 cycles by RT-PCR with SE less than 0.9)
same,Insulin gene expression,144 hrs,nd (not detectable at >40 cycles by RT-PCR)
same,Pdx-1 gene expression,144 hrs,nd (not detectable at >40 cycles by RT-PCR)
same,sox17 gene expression,144 hrs,+++ (detectable at less than 35 cycles by RT-PCR with SE less than 0.9)
same,Pdx-1 RT-PCR detection cycle,"1.25 μM, after the initial treatment",33 cycles
same,Insulin RT-PCR detection cycle,"1.25 μM, after trichostatin A was washed away",36 cycles
same,HNF-3 beta RT-PCR detection cycle,[1],32 cycles
same,Pdx-1 RT-PCR detection cycle,[1],32 cycles
same,HNF-3 beta RT-PCR detection cycle,"1.25 μM, initial treatment",35 cycles
same,HNF-3 beta RT-PCR detection cycle,"1.25 μM, prior to the second addition",38 cycles
